# Experimental data taken from patent US9255101B2 (BIOPROJECT, priority 2012, dated 2016).
# Structures can show the parent of a compound that is named as a salt.
# Key:
# [1] = biological target: T1, human H4 receptor (Homo sapiens, UniProt Q9H3N8); assay: biochemical
# [2] = biological target: T1, human H4 receptor; assay: biochemical; remark: listed apart in the source
# 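Throughout, for IC50: membranes from SH-SY5Y cells with stable human H4 receptor expression, incubated with GDP 10 µM, radioactivity retained on filters counted by liquid scintillation.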
# 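Throughout, for Ki: radioligand displacement of a [3H]-labelled ligand from membranes of CHO cells stably expressing human H4 receptor, bound radioactivity counted on filters by liquid scintillation.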
IC50 [1],Ki [2],SMILES
< 30 nM,< 30 nM,"Cc1c(-c2ccc(SC(C)(C)CCO)cc2)nc2n1CCc1ccccc1C2OC1CCN(C)CC1 (centres unmarked) [Example 152, 3-methyl-3-{4-[1-methyl-4-(1-methylpiperidin-4-yloxy)-9,10-dihydro-4H-3,10a-diaza-benzo[f]azulen-2-yl]-phenylsulfanyl}-butan-1-ol]"
< 30 nM,< 30 nM,"Cc1c(-c2ccc(NC(=S)NC(C)C)cc2)nc2n1CCc1ccccc1C2OC1CCN(C)CC1 (centres unmarked) [Example 206, 1-isopropyl-3-{4-[1-methyl-4-(1-methylpiperidin-4-yloxy)-9,10-dihydro-4H-3,10a-diazabenzo[f]azulen-2-yl]-phenyl}-thiourea]"
< 30 nM,< 300 nM,"Cc1ccc(-c2cn3c(n2)C(OC2CCN(C)CC2)c2ccccc2CC3)c(F)c1 (centres unmarked) [Example 82, 2-(2-fluoro-4-methylphenyl)-4-(1-methylpiperidin-4-yloxy)-9,10-dihydro-4H-3,10a-diaza-benzo[f]azulene]"
< 30 nM,< 30 nM,"CN1CCC(OC2c3ccccc3CCn3cc(C=CC(C)(C)C)nc32)CC1 (centres unmarked) [Example 93, 2-(3,3-dimethylbut-1-enyl)-4-(1-methylpiperidin-4-yloxy)-9,10-dihydro-4H-3,10a-diaza-benzo[f]azulene]"
< 30 nM,< 30 nM,"CN1CCC(OC2c3ccccc3CCn3cc(CCCC4CCCC4)nc32)CC1 (centres unmarked) [Example 105, 2-(3-cyclopentylpropyl)-4-(1-methylpiperidin-4-yloxy)-9,10-dihydro-4H-3,10a-diaza-benzo[f]azulene]"
< 1000 nM,< 300 nM,"CN1CCC(OC2c3cccc(Br)c3CCn3cc(I)nc32)CC1 (centres unmarked) [Example 79, 8-bromo-2-iodo-4-(1-methylpiperidin-4-yloxy)-9,10-dihydro-4H-3,10a-diaza-benzo[f]azulene]"
< 30 nM,< 300 nM,"CCc1ccc(-c2cn3c(n2)C(OC2CCN(C)CC2)c2ccccc2CC3)cc1 (centres unmarked) [Example 21, 2-(4-ethylphenyl)-4-(1-methylpiperidin-4-yloxy)-9,10-dihydro-4H-3,10a-diaza-benzo[f]azulene]"
< 30 nM,< 300 nM,"CN1CCC(OC2c3ccccc3CCn3cc(SC4CCCC4)nc32)CC1 (centres unmarked) [Example 86, 2-cyclopentylsulfanyl-4-(1-methylpiperidin-4-yloxy)-9,10-dihydro-4H-3,10a-diaza-benzo[f]azulene oxalate]"
< 300 nM,< 30 nM,"CN1CCC(OC2c3ccccc3CCn3cc(-c4ccc(NC(=O)OC(C)(C)C)cc4)nc32)CC1 (centres unmarked) [Example 49, {4-[4-(1-methylpiperidin-4-yloxy)-9,10-dihydro-4H-3,10a-diaza-benzo[f]azulen-2-yl]-phenyl}-carbamic acid tert-butyl ester]"
< 300 nM,< 300 nM,"CC(C)c1ccc(-c2cn3c(n2)C(OC2CCN(C)CC2)c2ccccc2CC3)cc1 (centres unmarked) [Example 32, 2-(4-isopropylphenyl)-4-(1-methyl-piperidin-4-yloxy)-9,10-dihydro-4H-3,10a-diaza-benzo[f]azulene oxalate]"
< 30 nM,< 30 nM,"CN1CCC(OC2c3ccccc3CCn3cc(-c4ccc(OC(F)(F)F)cc4)nc32)CC1 (centres unmarked) [Example 15, 4-(1-methylpiperidin-4-yloxy)-2-(4-trifluoromethoxyphenyl)-9,10-dihydro-4H-3,10a-diaza-benzo[f]azulene oxalate]"
< 300 nM,< 300 nM,"CN1CCC(OC2c3ccccc3CCn3cc(C=CC4CC4)nc32)CC1 (centres unmarked) [Example 99, 2-(2-cyclopropylvinyl)-4-(1-methylpiperidin-4-yloxy)-9,10-dihydro-4H-3,10a-diaza-benzo[f]azulene oxalate]"
< 300 nM,< 30 nM,"CN1CCC(OC2c3ccccc3CCn3c2nc(-c2ccccc2)c3C(F)(F)F)CC1 (centres unmarked) [Example 255, 4-(1-methylpiperidin-4-yloxy)-2-phenyl-1-trifluoromethyl-9,10-dihydro-4H-3,10a-diaza-benzo[f]azulene]"
< 300 nM,< 30 nM,"CN1CCC(OC2c3ccccc3CCn3cc(C=CCc4ccccc4)nc32)CC1 (centres unmarked) [Example 76, 4-(1-methylpiperidin-4-yloxy)-2-(3-phenylpropenyl)-9,10-dihydro-4H-3,10a-diaza-benzo[f]azulene oxalate]"
< 300 nM,< 30 nM,"CCCCc1ccc(-c2cn3c(n2)C(OC2CCN(C)CC2)c2ccccc2CC3)cc1 (centres unmarked) [Example 41, 2-(4-butylphenyl)-4-(1-methylpiperidin-4-yloxy)-9,10-dihydro-4H-3,10a-diaza-benzo[f]azulene oxalate]"
< 30 nM,< 300 nM,"CN1CCC(OC2c3ccccc3CCn3cc(-c4ccccc4Cl)nc32)CC1 (single isomer, unassigned) [Example 54B, 2-(2-chlorophenyl)-4-(1-methylpiperidin-4-yloxy)-9,10-dihydro-4H-3,10a-diaza-benzo[f]azulene]"

IC50 [1],Ki [2],SMILES
< 30 nM,< 30 nM,"CN1CCC(OC2c3ccccc3CCn3cc(C=CCOc4ccccc4)nc32)CC1 (centres unmarked) [Example 121, 4-(1-methylpiperidin-4-yloxy)-2-(3-phenoxypropenyl)-9,10-dihydro-4H-3,10a-diaza-benzo[f]azulene]"
< 300 nM,< 300 nM,"CN1CCC(OC2c3ccccc3CCn3cc(-c4ccc(CC#N)cc4)nc32)CC1 (centres unmarked) [Example 33, {4-[4-(1-methylpiperidin-4-yloxy)-9,10-dihydro-4H-3,10a-diaza-benzo[f]azulen-2-yl]-phenyl}-acetonitrile oxalate]"
< 300 nM,< 30 nM,"Cc1ccc(-c2cn3c(n2)C(OC2CCN(C)CC2)c2ccccc2CC3)cc1 (centres unmarked) [Example 5, 4-(1-methylpiperidin-4-yloxy)-2-p-tolyl-9,10-dihydro-4H-3,10a-diaza-benzo[f]azulene]"
< 30 nM,< 30 nM,"Cc1c(-c2ccc(N(C)C(=O)OC(C)(C)C)cc2)nc2n1CCc1ccccc1C2OC1CCN(C)CC1 (centres unmarked) [Example 125, methyl-{4-[1-methyl-4-(1-methylpiperidin-4-yloxy)-9,10-dihydro-4H-3,10a-diaza-benzo[f]azulen-2-yl]-phenyl}carbamic acid tert-butyl ester]"
< 30 nM,< 30 nM,"CC(=O)NCCSc1ccc(-c2nc3n(c2C)CCc2ccccc2C3OC2CCN(C)CC2)cc1 (centres unmarked) [Example 163, N-(2-{4-[1-methyl-4-(1-methylpiperidin-4-yloxy)-9,10-dihydro-4H-3,10a-diaza-benzo[f]azulen-2-yl]-phenylsulfanyl}-ethyl)-acetamide oxalate]"
< 30 nM,< 30 nM,"CN1CCC(OC2c3ccccc3CCn3cc(CCCCCc4ccccc4)nc32)CC1 (centres unmarked) [Example 90, 4-(1-methylpiperidin-4-yloxy)-2-(5-phenylpentyl)-9,10-dihydro-4H-3,10a-diaza-benzo[f]azulene oxalate]"
< 300 nM,< 300 nM,"CN1CCC(OC2c3ccccc3CCn3c2nc(-c2ccccc2)c3C(N)=O)CC1 (centres unmarked) [Example 254, 4-(1-methylpiperidin-4-yloxy)-2-phenyl-9,10-dihydro-4H-3,10a-diaza-benzo[f]azulene-1-carboxylic acid amide]"
–,< 300 nM,"COCc1ccc(-c2cn3c(n2)C(OC2CCN(C)CC2)c2ccccc2CC3)cc1 (centres unmarked) [Example 19, 2-(4-methoxymethylphenyl)-4-(1-methylpiperidin-4-yloxy)-9,10-dihydro-4H-3,10a-diaza-benzo[f]azulene oxalate]"
–,< 300 nM,"CCCc1nc2n(c1-c1ccccc1)CCc1ccccc1C2OC1CCN(C)CC1 (centres unmarked) [Example 246, 4-(1-methyl-piperidin-4-yloxy)-1-phenyl-2-propyl-9,10-dihydro-4H-3,10a-diaza-benzo[f]azulene]"
–,< 300 nM,"Cc1ccc(-c2cn3c(n2)C(OC2CCN(C)CC2)c2ccccc2CC3)c(C)c1 (centres unmarked) [Example 61, 2-(2,4-dimethylphenyl)-4-(1-methylpiperidin-4-yloxy)-9,10-dihydro-4H-3,10a-diaza-benzo[f]azulene]"
–,< 300 nM,"CN1CCC(OC2c3ccccc3CCn3cc(CCc4cccs4)nc32)CC1 (centres unmarked) [Example 126, 4-(1-methylpiperidin-4-yloxy)-2-(2-thiophen-2-ylethyl)-9,10-dihydro-4H-3,10a-diaza-benzo[f]azulene oxalate]"
–,< 300 nM,"Cc1c(-c2ccccn2)nc2n1CCc1ccccc1C2OC1CCN(C)CC1 (centres unmarked) [Example 251, 1-methyl-4-(1-methylpiperidin-4-yloxy)-2-pyridin-2-yl-9,10-dihydro-4H-3,10a-diaza-benzo[f]azulene]"
–,< 30 nM,"Cc1c(-c2ccc(SCCNC(=O)OC(C)(C)C)cc2)nc2n1CCc1ccccc1C2OC1CCN(C)CC1 (centres unmarked) [Example 160, (2-{4-[1-methyl-4-(1-methylpiperidin-4-yloxy)-9,10-dihydro-4H-3,10a-diaza-benzo[f]azulen-2-yl]-phenylsulfanyl}-ethyl)-carbamic acid tert-butyl ester oxalate]"
–,< 300 nM,"CN1CCC(OC2c3ccccc3CCn3c2nc(-c2ccccc2Cl)c3C(N)=O)CC1 (centres unmarked) [Example 273, 2-(2-chlorophenyl)-4-(1-methylpiperidin-4-yloxy)-9,10-dihydro-4H-3,10a-diaza-benzo[f]azulene-1-carboxylic acid amide]"
–,< 30 nM,"Cc1c(-c2ccc(NC(=O)OC(C)(C)C(Cl)(Cl)Cl)cc2)nc2n1CCc1ccccc1C2OC1CCN(C)CC1 (centres unmarked) [Example 175, {4-[1-methyl-4-(1-methylpiperidin-4-yloxy)-9,10-dihydro-4H-3,10a-diaza-benzo[f]azulen-2-yl]-phenyl}-carbamic acid 2,2,2-trichloro-1,1-dimethyl-ethyl ester]"

SMILES,IC50 [1],Ki [2]
"Cc1c(-c2ccc(C(=O)N3CCC(O)CC3)cc2)nc2n1CCc1ccccc1C2OC1CCN(C)CC1 (centres unmarked) [Example 220, (4-hydroxypiperidin-1-yl)-{4-[1-methyl-4-(1-methylpiperidin-4-yloxy)-9,10-dihydro-4H-3,10a-diaza-benzo[f]azulen-2-yl]-phenyl}-methanone]",–,< 300 nM
"Cc1c(-c2ccc(C3CCN(C(=O)OC(C)(C)C)CC3)cc2)nc2n1CCc1ccccc1C2OC1CCN(C)CC1 (centres unmarked) [Example 177, 4-{4-[1-methyl-4-(1-methylpiperidin-4-yloxy)-9,10-dihydro-4H-3,10a-diaza-benzo[f]azulen-2-yl]-phenyl}-piperidine-1-carboxylic acid tert-butyl ester]",–,< 30 nM
